In PubChem BioAssay (NCI):
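Cells were grown in 96-well plates and exposed to each compound for 48 hours at five concentrations; endpoints were interpolated linearly between bracketing concentrations, or set to the highest concentration if not reached. At the GI50, growth is halved. TGI: total growth inhibition.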

Key:
Test in all cases: inhibition of tumour cell growth, NCI panel, 48 h
786-0 renal = test system: 786-0 renal
A549 NSCLC = test system: A549 NSCLC
ACHN renal = test system: ACHN renal
BT-549 breast = test system: BT-549 breast
CAKI-1 renal = test system: CAKI-1 renal
CCRF-CEM leukemia = test system: CCRF-CEM leukemia
COLO 205 colon = test system: COLO 205 colon
DU-145 prostate = test system: DU-145 prostate
EKVX NSCLC = test system: EKVX NSCLC
HCC-2998 colon = test system: HCC-2998 colon
HCT-116 colon = test system: HCT-116 colon
HCT-15 colon = test system: HCT-15 colon
HL-60(TB) leukemia = test system: HL-60(TB) leukemia
HOP-62 NSCLC = test system: HOP-62 NSCLC
HOP-92 NSCLC = test system: HOP-92 NSCLC
HT29 colon = test system: HT29 colon
IGROV1 ovarian = test system: IGROV1 ovarian
KM12 colon = test system: KM12 colon
LOX IMVI melanoma = test system: LOX IMVI melanoma
M14 melanoma = test system: M14 melanoma
MALME-3M melanoma = test system: MALME-3M melanoma
MCF7 breast = test system: MCF7 breast
MDA-MB-231 breast = test system: MDA-MB-231 breast
MDA-MB-435 = test system: MDA-MB-435
MOLT-4 leukemia = test system: MOLT-4 leukemia
NCI-H226 lung = test system: NCI-H226 lung
NCI-H23 lung = test system: NCI-H23 lung
NCI-H460 lung = test system: NCI-H460 lung
NCI-H522 lung = test system: NCI-H522 lung
NCI/ADR-RES ovarian = test system: NCI/ADR-RES ovarian
OVCAR-3 ovarian = test system: OVCAR-3 ovarian
OVCAR-4 ovarian = test system: OVCAR-4 ovarian
OVCAR-5 ovarian = test system: OVCAR-5 ovarian
OVCAR-8 ovarian = test system: OVCAR-8 ovarian
PC-3 prostate = test system: PC-3 prostate
RPMI-8226 leukemia = test system: RPMI-8226 leukemia
RXF 393 renal = test system: RXF 393 renal
SF-268 CNS = test system: SF-268 CNS
SF-295 CNS = test system: SF-295 CNS
SF-539 CNS = test system: SF-539 CNS
SK-MEL-2 melanoma = test system: SK-MEL-2 melanoma
SK-MEL-28 melanoma = test system: SK-MEL-28 melanoma
SK-MEL-5 melanoma = test system: SK-MEL-5 melanoma
SK-OV-3 ovarian = test system: SK-OV-3 ovarian
SN12C renal = test system: SN12C renal
SNB-19 CNS = test system: SNB-19 CNS
SNB-75 CNS = test system: SNB-75 CNS
SR leukemia = test system: SR leukemia
SW-620 colon = test system: SW-620 colon
T-47D breast = test system: T-47D breast
TK-10 renal = test system: TK-10 renal
U251 CNS = test system: U251 CNS
UACC-257 melanoma = test system: UACC-257 melanoma
UACC-62 melanoma = test system: UACC-62 melanoma
UO-31 renal = test system: UO-31 renal

CSC1=CC(=O)c2ccccc2C1=O
GI50 (786-0 renal): 4.06 µM | TGI (786-0 renal): 14.1 µM | GI50 (A549 NSCLC): 24.2 µM | TGI (A549 NSCLC): 64.8 µM | GI50 (ACHN renal): 1.66 µM | TGI (ACHN renal): 3.07 µM | GI50 (BT-549 breast): 11.6 µM | TGI (BT-549 breast): 23.8 µM | GI50 (CAKI-1 renal): 1.59 µM | TGI (CAKI-1 renal): 3.11 µM | GI50 (CCRF-CEM leukemia): 0.296 µM | TGI (CCRF-CEM leukemia): 1.44 µM | GI50 (COLO 205 colon): 1.99 µM | TGI (COLO 205 colon): 3.65 µM | GI50 (DU-145 prostate): 10.8 µM | TGI (DU-145 prostate): 23.6 µM | GI50 (EKVX NSCLC): 15.5 µM | TGI (EKVX NSCLC): 34.9 µM | GI50 (HCC-2998 colon): 15.3 µM | TGI (HCC-2998 colon): 29.9 µM | GI50 (HCT-116 colon): 1.52 µM | TGI (HCT-116 colon): 2.92 µM | GI50 (HCT-15 colon): 11.6 µM | TGI (HCT-15 colon): 26.1 µM | GI50 (HL-60(TB) leukemia): 1.87 µM | TGI (HL-60(TB) leukemia): 4.33 µM | GI50 (HOP-62 NSCLC): 16.7 µM | TGI (HOP-62 NSCLC): 31.8 µM | GI50 (HOP-92 NSCLC): 0.811 µM | TGI (HOP-92 NSCLC): 2.19 µM | GI50 (HT29 colon): 26.3 µM | TGI (HT29 colon): 65.2 µM | GI50 (IGROV1 ovarian): 3.7 µM | TGI (IGROV1 ovarian): 13.2 µM | GI50 (KM12 colon): 6.75 µM | TGI (KM12 colon): 22.5 µM | GI50 (LOX IMVI melanoma): 1.75 µM | TGI (LOX IMVI melanoma): 3.92 µM | GI50 (M14 melanoma): 2.03 µM | TGI (M14 melanoma): 3.88 µM | GI50 (MALME-3M melanoma): 1.92 µM | TGI (MALME-3M melanoma): 3.54 µM | GI50 (MCF7 breast): 1.72 µM | TGI (MCF7 breast): 3.65 µM | GI50 (MDA-MB-231 breast): 1.29 µM | TGI (MDA-MB-231 breast): 3.02 µM | GI50 (MDA-MB-435): 3.02 µM | TGI (MDA-MB-435): 9.73 µM | GI50 (MOLT-4 leukemia): 1.64 µM | TGI (MOLT-4 leukemia): 4.86 µM | GI50 (NCI-H226 lung): 1.68 µM | TGI (NCI-H226 lung): 3.82 µM | GI50 (NCI-H23 lung): 3.45 µM | TGI (NCI-H23 lung): 17.5 µM | GI50 (NCI-H460 lung): 31.3 µM | TGI (NCI-H460 lung): > 100 µM | GI50 (NCI-H522 lung): 2.02 µM | TGI (NCI-H522 lung): 4.16 µM | GI50 (NCI/ADR-RES ovarian): 2.81 µM | TGI (NCI/ADR-RES ovarian): 11.7 µM | GI50 (OVCAR-3 ovarian): 1.78 µM | TGI (OVCAR-3 ovarian): 3.37 µM | GI50 (OVCAR-4 ovarian): 1.36 µM | TGI (OVCAR-4 ovarian): 2.67 µM | GI50 (OVCAR-5 ovarian): 17.4 µM | TGI (OVCAR-5 ovarian): 34.2 µM | GI50 (OVCAR-8 ovarian): 3.58 µM | TGI (OVCAR-8 ovarian): 15 µM | GI50 (PC-3 prostate): 2.54 µM | TGI (PC-3 prostate): 12.5 µM | GI50 (RPMI-8226 leukemia): 2.61 µM | TGI (RPMI-8226 leukemia): 7.96 µM | GI50 (RXF 393 renal): 1.54 µM | TGI (RXF 393 renal): 2.9 µM | GI50 (SF-268 CNS): 8.85 µM | TGI (SF-268 CNS): 22.1 µM | GI50 (SF-295 CNS): 15.4 µM | TGI (SF-295 CNS): 31.5 µM | GI50 (SF-539 CNS): 11.4 µM | TGI (SF-539 CNS): 24.3 µM | GI50 (SK-MEL-2 melanoma): 11.6 µM | TGI (SK-MEL-2 melanoma): 33.7 µM | GI50 (SK-MEL-28 melanoma): 11.1 µM | TGI (SK-MEL-28 melanoma): 23.8 µM | GI50 (SK-MEL-5 melanoma): 5.74 µM | TGI (SK-MEL-5 melanoma): 19 µM | GI50 (SK-OV-3 ovarian): 18.2 µM | TGI (SK-OV-3 ovarian): 32.1 µM | GI50 (SN12C renal): 5.31 µM | TGI (SN12C renal): 19.4 µM | GI50 (SNB-19 CNS): 13.8 µM | TGI (SNB-19 CNS): 29.4 µM | GI50 (SNB-75 CNS): 11.6 µM | TGI (SNB-75 CNS): 24.2 µM | GI50 (SR leukemia): 3.11 µM | TGI (SR leukemia): 8.98 µM | GI50 (SW-620 colon): 2.49 µM | TGI (SW-620 colon): 8.13 µM | GI50 (T-47D breast): 0.41 µM | TGI (T-47D breast): 2.1 µM | GI50 (TK-10 renal): 2.66 µM | TGI (TK-10 renal): 5.5 µM | GI50 (U251 CNS): 11 µM | TGI (U251 CNS): 23.8 µM | GI50 (UACC-257 melanoma): 2.04 µM | TGI (UACC-257 melanoma): 4.36 µM | GI50 (UACC-62 melanoma): 4.06 µM | TGI (UACC-62 melanoma): 17.1 µM | GI50 (UO-31 renal): 1.4 µM | TGI (UO-31 renal): 2.84 µM
